Test results published in US9145351B2, “Azole derivatives, methods for producing the same, intermediate thereof, agro-horticultural agents” (KUREHA CORPORATION, priority 2009, dated 2015).
Read-outs that look alike come from different tables or passages of the source.

Tests used:
Format in all cases: cell-based
Botritis cinerea = test: Plate medium fungicidal assay, gray mold B.c (Experimental Example 5)
Summary of the method: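 Compounds in DMSO were incorporated into PDA plate medium at 50 mg/L and 5 mg/L, then inoculated with 4 mm mycelial plugs of Botrytis cinerea. Colony diameter versus untreated plates gave % mycelial growth inhibition, R=100(dc−dt)/dc, scored on a 5-grade scale.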

Ustilago nuda = test: Plate medium fungicidal assay, barley loose smut U.n (Experimental Example 5); conditions: for inhibition at 5 µg/mL / inhibition at 50 µg/mL: Ustilago nuda
Summary of the method: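 Compounds in DMSO were mixed into molten PDA to give plates at 50 mg/L and 5 mg/L, then inoculated with a 4 mm mycelial plug. Colony diameter was compared with untreated plates as % inhibition = 100(dc−dt)/dc, scored on a 5-grade scale.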

Phaeosphaeria nodorum = test: Plate medium fungicidal assay, wheat Septoria nodorum blotch P.n (Experimental Example 5); conditions: for inhibition at 5 µg/mL / inhibition at 50 µg/mL: Parastagonospora nodorum
Summary of the method: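 Compound in DMSO mixed into PDA plate medium at 50 mg/L and 5 mg/L; 4 mm mycelial plug of pre-cultured fungus inoculated onto plate. Colony diameter compared with untreated plate, % mycelial growth inhibition = 100(dc−dt)/dc, scored in 5 grades.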

Giberella fujikuroi = test: Plate medium fungicidal assay, rice bakanae disease G.f (Experimental Example 5)
Summary of the method: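 Gibberella fujikuroi mycelial plugs (4 mm) placed on PDA plates containing compound at 50 mg/L and 5 mg/L, added from DMSO solution. Colony diameter compared with untreated plates as % inhibition = 100(dc−dt)/dc, then scored in 5 grades.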

Sclerotinia sclerotiorum = test: Plate medium fungicidal assay, Sclerotinia rot S.s (Experimental Example 5); conditions: for inhibition at 5 µg/mL / inhibition at 50 µg/mL: Sclerotinia sclerotiorum
Summary of the method: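 A 4 mm mycelial plug was placed on PDA plates containing compound at 50 mg/L and 5 mg/L, added from DMSO solution. Colony diameters were compared with untreated plates, % mycelial growth inhibition was R=100(dc−dt)/dc, and scores fell into 5 grades.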

Fusarium graminearum = test: microbe, parasite or virus in culture; conditions: for inhibition at 5 µg/mL / inhibition at 50 µg/mL: Fusarium graminearum
[1] = plate medium containing compound at 5 mg/L
[2] = plate medium containing compound at 50 mg/L
[3] = plate medium containing compound at 5 mg/L, read-out: Growth inhibition grade, B.c
[4] = plate medium containing compound at 50 mg/L, read-out: Growth inhibition grade, B.c
[5] = plate medium containing compound at 5 mg/L, read-out: Growth inhibition grade, U.n
[6] = plate medium containing compound at 50 mg/L, read-out: Growth inhibition grade, U.n
[7] = plate medium containing compound at 5 mg/L, read-out: Growth inhibition grade, P.n
[8] = plate medium containing compound at 50 mg/L, read-out: Growth inhibition grade, P.n
[9] = plate medium containing compound at 5 mg/L, read-out: Growth inhibition grade, G.f
[10] = plate medium containing compound at 50 mg/L, read-out: Growth inhibition grade, G.f
[11] = plate medium containing compound at 5 mg/L, read-out: Growth inhibition grade, S.s
[12] = plate medium containing compound at 50 mg/L, read-out: Growth inhibition grade, S.s
[13] = read-out: Growth inhibition grade, F.g
[14] = read-out: growth inhibition grade F.g

Compound | Growth inhibition grade, B.c (Botritis cinerea; plate medium, 5 mg/L) | Growth inhibition grade, B.c (Botritis cinerea; plate medium, 50 mg/L) | Growth inhibition grade, U.n (Ustilago nuda; plate medium, 5 mg/L) | Growth inhibition grade, U.n (Ustilago nuda; plate medium, 50 mg/L) | Growth inhibition grade, P.n (Phaeosphaeria nodorum; plate medium, 5 mg/L) | Growth inhibition grade, P.n (Phaeosphaeria nodorum; plate medium, 50 mg/L) | Growth inhibition grade, G.f (Giberella fujikuroi; plate medium, 5 mg/L) | Growth inhibition grade, G.f (Giberella fujikuroi; plate medium, 50 mg/L) | inhibition at 5 µg/mL (Botritis cinerea; [3]) [%] | inhibition at 50 µg/mL (Botritis cinerea; [4]) [%] | inhibition at 5 µg/mL (Ustilago nuda; [5]) [%] | inhibition at 50 µg/mL (Ustilago nuda; [6]) [%] | inhibition at 5 µg/mL (Phaeosphaeria nodorum; [7]) [%] | inhibition at 50 µg/mL (Phaeosphaeria nodorum; [8]) [%] | inhibition at 5 µg/mL (Giberella fujikuroi; [9]) [%] | inhibition at 50 µg/mL (Giberella fujikuroi; [10]) [%] | inhibition at 5 µg/mL (Sclerotinia sclerotiorum; [11]) [%] | inhibition at 50 µg/mL (Sclerotinia sclerotiorum; [12]) [%] | inhibition at 5 µg/mL (Fusarium graminearum; [13]) [%] | inhibition at 50 µg/mL (Fusarium graminearum; [13]) [%] | other results
O[C@]1(Cn2cncn2)[C@H](Cc2ccc(Cl)cc2)CCC1(CCl)CCl (relative stereo) [Compound I-203, cis-5-(4-chlorobenzyl)-2,2-bis(chloromethyl)-1-(1H-1,2,4-triazol-1-yl)methylcyclopentanol] | 5 (% Mycerial growth inhibition of 80% or higher) | 5 (% Mycerial growth inhibition of 80% or higher) | 5 (% Mycerial growth inhibition of 80% or higher) | 5 (% Mycerial growth inhibition of 80% or higher) | 5 (% Mycerial growth inhibition of 80% or higher) | 5 (% Mycerial growth inhibition of 80% or higher) | 5 (% Mycerial growth inhibition of 80% or higher) | 5 (% Mycerial growth inhibition of 80% or higher) |  |  |  |  |  |  |  |  |  |  |  |  | Growth inhibition grade, S.s (Sclerotinia sclerotiorum; plate medium, 5 mg/L): 5 (% Mycerial growth inhibition of 80% or higher); Growth inhibition grade, S.s (Sclerotinia sclerotiorum; plate medium, 50 mg/L): 5 (% Mycerial growth inhibition of 80% or higher); Growth inhibition grade, F.g (Fusarium graminearum; plate medium, 5 mg/L): 5 (% Mycerial growth inhibition of 80% or higher); Growth inhibition grade, F.g (Fusarium graminearum; plate medium, 50 mg/L): 5 (% Mycerial growth inhibition of 80% or higher)
CC1(C)CCC(Cc2ccc(Cl)cc2)C1(O)Cn1ncnc1S (racemic) [compound (2)] | 2 (% Mycerial growth inhibition of less than 40 to 20% or higher) | 5 (% Mycerial growth inhibition of 80% or higher) | 1 (% Mycerial growth inhibition of less than 20%) | 3 (% Mycelial growth inhibition of less than 60 to 40% or higher) | 3 (% Mycelial growth inhibition of less than 60 to 40% or higher) | 4 (% Mycerial growth inhibition of less than 80 to 60% or higher) | 3 (% Mycelial growth inhibition of less than 60 to 40% or higher) | 4 (% Mycerial growth inhibition of less than 80 to 60% or higher) |  |  |  |  |  |  |  |  |  |  |  |  | Growth inhibition grade, S.s (Sclerotinia sclerotiorum; plate medium, 5 mg/L): 3 (% Mycelial growth inhibition of less than 60 to 40% or higher); Growth inhibition grade, S.s (Sclerotinia sclerotiorum; plate medium, 50 mg/L): 5 (% Mycerial growth inhibition of 80% or higher); Growth inhibition grade, F.g (Fusarium graminearum; plate medium, 5 mg/L): 3 (% Mycelial growth inhibition of less than 60 to 40% or higher); Growth inhibition grade, F.g (Fusarium graminearum; plate medium, 50 mg/L): 5 (% Mycerial growth inhibition of 80% or higher)
C[C@]1(CCl)CC[C@@H](Cc2ccc(OC(F)(F)F)cc2)[C@]1(O)Cn1cncn1 (relative stereo) [Compound I-79] |  |  |  |  |  |  |  |  |  |  |  |  |  |  |  |  |  |  |  |  | Growth inhibition grade, B.c (Botritis cinerea; [1]): 5 (% Mycerial growth inhibition of 80% or higher); Growth inhibition grade, B.c (Botritis cinerea; [2]): 5 (% Mycerial growth inhibition of 80% or higher); Growth inhibition grade, U.n (Ustilago nuda; [1]): 5 (% Mycerial growth inhibition of 80% or higher); Growth inhibition grade, U.n (Ustilago nuda; [2]): 5 (% Mycerial growth inhibition of 80% or higher); Growth inhibition grade, P.n (Phaeosphaeria nodorum; [1]): 5 (% Mycerial growth inhibition of 80% or higher); Growth inhibition grade, P.n (Phaeosphaeria nodorum; [2]): 5 (% Mycerial growth inhibition of 80% or higher); Growth inhibition grade, G.f (Giberella fujikuroi; [1]): 5 (% Mycerial growth inhibition of 80% or higher); Growth inhibition grade, G.f (Giberella fujikuroi; [2]): 5 (% Mycerial growth inhibition of 80% or higher); Growth inhibition grade, S.s (Sclerotinia sclerotiorum; [1]): 5 (% Mycerial growth inhibition of 80% or higher); Growth inhibition grade, S.s (Sclerotinia sclerotiorum; [2]): 5 (% Mycerial growth inhibition of 80% or higher); Growth inhibition grade, F.g (Fusarium graminearum; [1]): 5 (% Mycerial growth inhibition of 80% or higher); Growth inhibition grade, F.g (Fusarium graminearum; [2]): 5 (% Mycerial growth inhibition of 80% or higher)
C[C@]1(CCl)CC[C@@H](Cc2ccc(F)cc2)[C@]1(O)Cn1cncn1 (racemic) [Compound I-77, (1RS,2SR,5SR)-2-chloromethyl-5-(4-fluorobenzyl)-2-methyl-1-(1H-1,2,4-triazol-1-ylmethyl)cyclopentanol] |  |  |  |  |  |  |  |  | > 80 | > 80 | > 80 | > 80 | > 80 | > 80 | > 80 | > 80 | > 80 | > 80 | > 80 | > 80 | inhibition at 5 µg/mL (Botritis cinerea; plate medium, 5 mg/L, read-out: growth inhibition grade B.c): > 80%; inhibition at 50 µg/mL (Botritis cinerea; plate medium, 50 mg/L, read-out: growth inhibition grade B.c): > 80%; inhibition at 5 µg/mL (Ustilago nuda; plate medium, 5 mg/L, read-out: growth inhibition grade U.n): > 80%; inhibition at 50 µg/mL (Ustilago nuda; plate medium, 50 mg/L, read-out: growth inhibition grade U.n): > 80%; inhibition at 5 µg/mL (Phaeosphaeria nodorum; plate medium, 5 mg/L, read-out: growth inhibition grade P.n): > 80%; inhibition at 50 µg/mL (Phaeosphaeria nodorum; plate medium, 50 mg/L, read-out: growth inhibition grade P.n): > 80%; inhibition at 5 µg/mL (Giberella fujikuroi; plate medium, 5 mg/L, read-out: growth inhibition grade G.f): > 80%; inhibition at 50 µg/mL (Giberella fujikuroi; plate medium, 50 mg/L, read-out: growth inhibition grade G.f): > 80%; inhibition at 5 µg/mL (Sclerotinia sclerotiorum; plate medium, 5 mg/L, read-out: growth inhibition grade S.s): > 80%; inhibition at 50 µg/mL (Sclerotinia sclerotiorum; plate medium, 50 mg/L, read-out: growth inhibition grade S.s): > 80%; inhibition at 5 µg/mL (Fusarium graminearum; [14]): > 80%; inhibition at 50 µg/mL (Fusarium graminearum; [14]): > 80%
CC[C@]1(CCl)CC[C@@H](Cc2ccc(Cl)cc2)[C@]1(O)Cn1cncn1 (racemic) [Compound I-36, (1RS,2SR,5SR)-5-(4-chlorobenzyl)-2-chloromethyl-2-ethyl-1-(1H-1,2,4-triazol-1-ylmethyl)cyclopentanol] |  |  |  |  |  |  |  |  | 60 to 80 | > 80 | 60 to 80 | > 80 | > 80 | > 80 | > 80 | > 80 | > 80 | > 80 | > 80 | > 80 | 
C[C@]1(CCl)CC[C@@H](Cc2cccc(Cl)c2)[C@]1(O)Cn1cncn1 (racemic) [Compound I-74, (1RS,2SR,5SR)-5-(3-chlorobenzyl)-2-chloromethyl-2-methyl-1-(1H-1,2,4-triazol-1-ylmethyl)cyclopentanol] |  |  |  |  |  |  |  |  | > 80 | > 80 | > 80 | > 80 | > 80 | > 80 | > 80 | > 80 | > 80 | > 80 | > 80 | > 80 | 
